Reference: PMC7713294, “Multiplicity of carotene patterns derives from competition between phytoene desaturase diversification and biological environments” (Scientific Reports, 2020)

Legend:
Assay in all cases: HPLC-UV time course, global Michaelis-Menten fit (COPASI)
Type in all cases: biochemical
[1] = target: T1, I4_Bt (CrtI from Blakeslea trispora) (Blakeslea trispora, UniProt Q67GI0); settings: phytoene liposomes (soy lecithin), FAD, pH 8.0, 30 °C; Kd = kr/kf fitted with bounded rate constants
T1 construct: gene carB; full length, codon optimized, C-terminal His6, E. coli BL21(DE3), TALON purified with FAD
T1 sequence (Q67GI0 1-582): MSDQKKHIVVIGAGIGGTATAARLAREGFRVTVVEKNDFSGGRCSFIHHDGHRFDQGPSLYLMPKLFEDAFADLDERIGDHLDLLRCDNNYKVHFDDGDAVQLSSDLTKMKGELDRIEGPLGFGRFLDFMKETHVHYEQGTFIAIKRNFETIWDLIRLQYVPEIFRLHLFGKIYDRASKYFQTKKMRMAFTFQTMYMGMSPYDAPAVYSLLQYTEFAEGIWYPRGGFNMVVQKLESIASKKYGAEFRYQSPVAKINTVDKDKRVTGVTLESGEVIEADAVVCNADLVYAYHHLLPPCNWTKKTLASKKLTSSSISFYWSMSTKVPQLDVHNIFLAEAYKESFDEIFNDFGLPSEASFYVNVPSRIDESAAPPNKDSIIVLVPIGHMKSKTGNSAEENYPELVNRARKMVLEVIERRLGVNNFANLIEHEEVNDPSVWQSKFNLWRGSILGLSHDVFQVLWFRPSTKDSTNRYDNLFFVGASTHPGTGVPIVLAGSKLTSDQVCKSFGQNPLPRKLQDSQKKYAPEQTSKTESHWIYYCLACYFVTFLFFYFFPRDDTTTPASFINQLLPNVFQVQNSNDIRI

I4_Ma = target: T2, I4_Ma (Mycolicibacterium aurum, UniProt Q9K566); settings: phytoene liposomes (soy lecithin), FAD, pH 8.0, 30 °C, Kd = kr/kf fitted with bounded rate constants
T2 construct: gene crtI; full length, codon optimized, C-terminal His6, E. coli BL21(DE3), TALON purified with FAD; species only as initials (Ma), read as Mycobacterium aurum
T2 sequence (Q9K566 entry or part of it): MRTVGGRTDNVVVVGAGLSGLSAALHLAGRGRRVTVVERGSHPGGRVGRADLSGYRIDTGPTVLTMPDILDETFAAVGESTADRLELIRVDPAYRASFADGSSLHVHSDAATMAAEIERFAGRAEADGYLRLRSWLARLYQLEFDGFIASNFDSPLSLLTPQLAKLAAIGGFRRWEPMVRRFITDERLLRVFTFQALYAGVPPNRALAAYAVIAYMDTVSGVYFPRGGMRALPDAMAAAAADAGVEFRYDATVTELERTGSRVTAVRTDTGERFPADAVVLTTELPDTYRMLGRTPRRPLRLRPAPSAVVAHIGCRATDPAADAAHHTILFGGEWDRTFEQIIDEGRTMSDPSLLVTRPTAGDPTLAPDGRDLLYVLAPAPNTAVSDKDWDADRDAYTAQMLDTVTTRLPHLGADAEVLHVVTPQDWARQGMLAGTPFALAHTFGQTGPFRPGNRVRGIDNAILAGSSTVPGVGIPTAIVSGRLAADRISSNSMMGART

I3_Rc = target: T3, I3_Rc (Rhodobacter capsulatus, UniProt P17054); settings: phytoene liposomes (soy lecithin), FAD, pH 8.0, 30 °C, Kd = kr/kf fitted with bounded rate constants
T3 construct: gene crtI; full length, codon optimized, C-terminal His6, E. coli BL21(DE3), TALON purified with FAD; species only as initials
T3 sequence (P17054 whole entry): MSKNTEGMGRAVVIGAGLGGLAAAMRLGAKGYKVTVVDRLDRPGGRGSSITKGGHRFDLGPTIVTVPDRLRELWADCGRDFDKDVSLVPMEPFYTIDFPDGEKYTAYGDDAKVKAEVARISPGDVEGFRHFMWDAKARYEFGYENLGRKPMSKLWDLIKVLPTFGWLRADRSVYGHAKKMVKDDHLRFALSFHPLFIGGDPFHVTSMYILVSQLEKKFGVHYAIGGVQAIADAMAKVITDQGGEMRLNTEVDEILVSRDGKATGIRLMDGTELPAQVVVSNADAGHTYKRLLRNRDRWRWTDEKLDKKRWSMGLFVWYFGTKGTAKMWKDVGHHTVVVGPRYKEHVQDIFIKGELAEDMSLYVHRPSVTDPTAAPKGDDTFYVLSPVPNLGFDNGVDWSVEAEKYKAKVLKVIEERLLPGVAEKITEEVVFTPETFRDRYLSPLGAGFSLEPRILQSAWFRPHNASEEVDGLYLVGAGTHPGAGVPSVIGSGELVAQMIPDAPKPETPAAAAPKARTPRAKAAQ

Compound `CC(C)=CCC/C(C)=C/CC/C(C)=C/CC/C(C)=C/C=C\C=C(/C)CC/C=C(\C)CC/C=C(\C)CCC=C(C)C` [phytoene] has a Kd [1] of 7.9 µM, a Kd (I4_Ma) of 13100 nM and a Kd (I3_Rc) of 1.1 µM.
With `CC(C)=CCC/C(C)=C/CC/C(C)=C/C=C/C(C)=C/C=C/C=C(\C)CC/C=C(\C)CC/C=C(\C)CCC=C(C)C` [phytofluene] the Kd [1] was 4.7 µM, the Kd (I4_Ma) was 1000 nM and the Kd (I3_Rc) was 1 µM.
`CC(C)=CCC/C(C)=C/C=C/C(C)=C/C=C/C(C)=C/C=C/C=C(C)/C=C/C=C(\C)CC/C=C(\C)CCC=C(C)C` [neurosporene] was tested, and the Kd [1] was 1.6 µM, the Kd (I4_Ma; intermediate formed in situ from phytoene) was 2100 nM and the Kd (I3_Rc; lycopene production poorly fitted for I3_Rc) was 33 µM.
Work on `CC(C)=CCC/C(C)=C/CC/C(C)=C/C=C/C(C)=C/C=C/C=C(C)/C=C/C=C(\C)CC/C=C(\C)CCC=C(C)C` [ζ-carotene] yielded a Kd [1] of 2.5 µM, a Kd (I4_Ma) of 2300 nM and a Kd (I3_Rc) of 23 µM.
